Reference: patent US12077503B2, “Substituted cyclic amides and their use as herbicides” (FMC CORPORATION, priority 2015, dated 2024)

Assays:
Test in all cases: Test E preemergence
Format in all cases: in vivo
[1] = system: soybean (Glycine max); conditions: scale 0 to 100
Outline: (§1)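 Seeds planted in silt loam were treated preemergence, and plants in Redi-Earth peat medium at 2 to 18 cm (1- to 4-leaf) were treated postemergence, with test chemicals in non-phytotoxic solvent with surfactant. Plants kept in greenhouse 14 to 21 d, then visually rated against controls on a 0–100 scale (0 no effect, 100 complete control).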

[2] = system: field bindweed (Convolvulus arvensis); conditions: scale 0 to 100
Outline: as §1

[3] = system: goosegrass (Eleusine indica); conditions: scale 0 to 100
Outline: as §1

[4] = system: foxtail, giant (giant foxtail, Setaria faberii); conditions: scale 0 to 100
Outline: as §1

[5] = system: crabgrass, large (large crabgrass, Digitaria sangumnalis); conditions: scale 0 to 100
Outline: as §1

[6] = system: beggarticks (hairy beggarticks, Bidens pilosa); conditions: scale 0 to 100
Outline: as §1

[7] = system: foxtail, green (green foxtail, Setaria viridis); conditions: scale 0 to 100
Outline: as §1

[8] = system: waterhemp (common waterhemp, Amaranthus rudis); conditions: scale 0 to 100
Outline: as §1

[9] = system: ryegrass, Italian (Italian ryegrass, Lolium multiflorum); conditions: scale 0 to 100
Outline: as §1

[10] = system: Panicum, fall (fall Panicum, Panicum dichotomiflorum); conditions: scale 0 to 100
Outline: as §1

[11] = system: lambsquarters (Chenopodium album); conditions: scale 0 to 100
Outline: as §1

[12] = system: arrowleaf Sida (Sida rhombifolia); conditions: scale 0 to 100
Outline: as §1

[13] = system: sandbur (southern sandbur, Cenchrus echinatus); conditions: scale 0 to 100
Outline: as §1

[14] = system: crabgrass, Brazil (Brazilian crabgrass, Digitaria horizontalis); conditions: scale 0 to 100
Outline: as §1

[15] = system: morningglory (Ipomoea coccinea); conditions: scale 0 to 100
Outline: as §1

[16] = system: surinam grass (Brachiaria decumbens); conditions: scale 0 to 100
Outline: as §1

[17] = system: dayflower, VA (Virginia dayflower, Commelina virginica); conditions: scale 0 to 100
Outline: as §1

[18] = system: johnsongrass (Sorghum halepense); conditions: scale 0 to 100
Outline: as §1

[19] = system: nutsedge, yellow (yellow nutsedge, Cyperus esculentus); conditions: scale 0 to 100
Outline: as §1

[20] = system: corn (Zea mays); conditions: scale 0 to 100
Outline: as §1

[21] = system: horseweed (Conyza canadensis); conditions: 31 g ai/ha, scale 0 to 100
Outline: as §1

CN1CC(c2cccc(C(F)(F)F)c2)C(C(=O)Nc2ccccc2S(C)(=O)=O)C1=O (centres unmarked) [Compound 637]
65: Plant response rating: Goosegrass ([3]; 125 g ai/ha) | Plant response rating: Foxtail, Green ([7]; 31 g ai/ha) | Plant response rating: Waterhemp ([8]; 125 g ai/ha)
40: Plant response rating: Waterhemp ([8]; 62 g ai/ha)
25: Plant response rating: Soybean ([1]; 125 g ai/ha) | Plant response rating: Johnsongrass ([18]; 125 g ai/ha)
35: Plant response rating: Soybean ([1]; 250 g ai/ha) | Plant response rating: Field Bindweed ([2]; 250 g ai/ha) | Plant response rating: Ryegrass, Italian ([9]; 125 g ai/ha) | Plant response rating: Ryegrass, Italian ([9]; 250 g ai/ha) | Plant response rating: Panicum, Fall ([10]; 62 g ai/ha) | Plant response rating: Sandbur ([13]; 62 g ai/ha) | Plant response rating: Morningglory ([15]; 125 g ai/ha) | Plant response rating: Morningglory ([15]; 250 g ai/ha) | Plant response rating: Nutsedge, Yellow ([19]; 250 g ai/ha) | Plant response rating: Corn ([20]; 125 g ai/ha)
90: Plant response rating: Goosegrass ([3]; 250 g ai/ha) | Plant response rating: Crabgrass, Large ([5]; 31 g ai/ha) | Plant response rating: Panicum, Fall ([10]; 125 g ai/ha) | Plant response rating: Lambsquarters ([11]; 125 g ai/ha) | Plant response rating: Sandbur ([13]; 125 g ai/ha) | Plant response rating: Sandbur ([13]; 250 g ai/ha) | Plant response rating: Surinam Grass ([16]; 250 g ai/ha)
10: Plant response rating: Soybean ([1]; 62 g ai/ha) | Plant response rating: Surinam Grass ([16]; 31 g ai/ha)
20: Plant response rating: Dayflower, VA ([17]; 250 g ai/ha)
60: Plant response rating: Johnsongrass ([18]; 250 g ai/ha)
70: Plant response rating: Corn ([20]; 250 g ai/ha)
75: Plant response rating: Foxtail, Giant ([4]; 31 g ai/ha) | Plant response rating: Foxtail, Green ([7]; 62 g ai/ha) | Plant response rating: Crabgrass, Brazil ([14]; 31 g ai/ha) | Plant response rating: Surinam Grass ([16]; 125 g ai/ha)
80: Plant response rating: Lambsquarters ([11]; 250 g ai/ha)
95: Plant response rating: Foxtail, Giant ([4]; 62 g ai/ha) | Plant response rating: Crabgrass, Large ([5]; 62 g ai/ha) | Plant response rating: Foxtail, Green ([7]; 125 g ai/ha) | Plant response rating: Panicum, Fall ([10]; 250 g ai/ha) | Plant response rating: Crabgrass, Brazil ([14]; 250 g ai/ha)
50: Plant response rating: Waterhemp ([8]; 31 g ai/ha) | Plant response rating: Ryegrass, Italian ([9]; 62 g ai/ha) | Plant response rating: Surinam Grass ([16]; 62 g ai/ha)
0: Plant response rating: Soybean ([1]; 31 g ai/ha) | Plant response rating: Field Bindweed ([2]; 31 g ai/ha) | Plant response rating: Field Bindweed ([2]; 62 g ai/ha) | Plant response rating: Field Bindweed ([2]; 125 g ai/ha) | Plant response rating: Goosegrass ([3]; 31 g ai/ha) | Plant response rating: Goosegrass ([3]; 62 g ai/ha) | Plant response rating: Beggarticks ([6]; 31 g ai/ha) | Plant response rating: Beggarticks ([6]; 62 g ai/ha) | Plant response rating: Beggarticks ([6]; 125 g ai/ha) | Plant response rating: Beggarticks ([6]; 250 g ai/ha) | Plant response rating: Ryegrass, Italian ([9]; 31 g ai/ha) | Plant response rating: Panicum, Fall ([10]; 31 g ai/ha) | Plant response rating: Lambsquarters ([11]; 62 g ai/ha) | Plant response rating: Arrowleaf Sida ([12]; 31 g ai/ha) | Plant response rating: Arrowleaf Sida ([12]; 62 g ai/ha) | Plant response rating: Arrowleaf Sida ([12]; 125 g ai/ha) | Plant response rating: Arrowleaf Sida ([12]; 250 g ai/ha) | Plant response rating: Sandbur ([13]; 31 g ai/ha) | Plant response rating: Morningglory ([15]; 31 g ai/ha) | Plant response rating: Morningglory ([15]; 62 g ai/ha) | Plant response rating: Dayflower, VA ([17]; 31 g ai/ha) | Plant response rating: Dayflower, VA ([17]; 62 g ai/ha) | Plant response rating: Dayflower, VA ([17]; 125 g ai/ha) | Plant response rating: Johnsongrass ([18]; 31 g ai/ha) | Plant response rating: Johnsongrass ([18]; 62 g ai/ha) | Plant response rating: Nutsedge, Yellow ([19]; 31 g ai/ha) | Plant response rating: Nutsedge, Yellow ([19]; 62 g ai/ha) | Plant response rating: Nutsedge, Yellow ([19]; 125 g ai/ha) | Plant response rating: Corn ([20]; 31 g ai/ha) | Plant response rating: Corn ([20]; 62 g ai/ha) | Plant response rating: Horseweed [21]
85: Plant response rating: Waterhemp ([8]; 250 g ai/ha) | Plant response rating: Crabgrass, Brazil ([14]; 62 g ai/ha)
98: Plant response rating: Foxtail, Giant ([4]; 125 g ai/ha) | Plant response rating: Foxtail, Giant ([4]; 250 g ai/ha) | Plant response rating: Crabgrass, Large ([5]; 125 g ai/ha) | Plant response rating: Crabgrass, Large ([5]; 250 g ai/ha) | Plant response rating: Foxtail, Green ([7]; 250 g ai/ha) | Plant response rating: Crabgrass, Brazil ([14]; 125 g ai/ha)
